For assay [1], the system named is NCI-H358 cells (K-Ras G12C). Kind of assay: Potency assay: pERK in NCI-H358 cells. The assay is classed as cell-based, human. Conditions: Homo sapiens, NCI-H358; H358 KRAS G12C; read-out: pERK EC50. Put shortly: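 pERK decrease read by AlphaLISA SureFire p-ERK1/2 or In-Cell Western after 4 h compound exposure at 37 °C, 5% CO2.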
In another assay the target is K-Ras G13C (Homo sapiens (Human), UniProt P01116+P62937, G13C). Briefly: Ras-Raf (BRAF RBD) disruption / FRET / MOA assay, KRAS G13C. The assay is classed as biochemical. Conditions: KRAS G13C; Ras-Raf disruption/FRET/MOA assay; read-out: IC50* KRAS G13C FRET data. The procedure, abridged: (§1)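 A 10-point, 3-fold dilution series topping at 30 μM final was incubated 3 h at 25° C with the Ras/cyclophilin A/BRAF RBD mixture.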

The target of another assay is KRAS G12V (Homo sapiens (Human), UniProt P01116+P62937, G12V). Kind of assay: Ras-Raf (BRAF RBD) disruption / FRET / MOA assay, KRAS G12V. The conditions noted are these: read-out: IC50* KRAS G12V FRET data. Format: biochemical. The procedure, abridged: as §1
For another assay, the target named is KRAS WT (Homo sapiens (Human), UniProt P01116+P62937). Briefly: Ras-Raf (BRAF RBD) disruption / FRET / MOA assay, KRAS WT. Format: biochemical. Conditions: read-out: IC50* KRAS WT FRET data. The procedure, abridged: as §1
The next assay has as its target KRAS G13D (Homo sapiens (Human), UniProt P01116+P62937, G13D). Kind of assay: Ras-Raf (BRAF RBD) disruption / FRET / MOA assay, KRAS G13D. The assay is classed as biochemical. Conditions: read-out: IC50* KRAS G13D FRET data. Put shortly: as §1
Another assay deals with KRAS Q61H (Homo sapiens (Human), UniProt P01116+P62937, Q61H). Briefly: Ras-Raf (BRAF RBD) disruption / FRET / MOA assay, KRAS Q61H. Format: biochemical. Conditions: Ras-Raf disruption/FRET/MOA assay; class symbols; read-out: KRAS Q61H FRET data IC50. The procedure, abridged: (§2)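 Compounds (30 μM top final, 10-point 3-fold dilutions) incubated 3 h at 25° C with nucleotide-loaded Ras, cyclophilin A and BRAF RBD. Detection with 10 nM anti-His Eu-W1024 and 50 nM anti-GST allophycocyanin over another 1.5 h. Lowered TR-FRET ratio relative to DMSO wells gives IC50.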

Another assay addresses NRAS WT (Homo sapiens (Human), UniProt P01111+P62937). Briefly: Ras-Raf (BRAF RBD) disruption / FRET / MOA assay, NRAS WT. The assay is classed as biochemical. The conditions noted are these: read-out: IC50* NRAS WT FRET data. The procedure, abridged:
as §2

Where “and” joins values, the source holds several entries; their conditions need not be identical. Equal values may be shown once.

KRAS Q61H, sequence (P01116-2 other isoform, or with tags, fused parts or gaps Q61H): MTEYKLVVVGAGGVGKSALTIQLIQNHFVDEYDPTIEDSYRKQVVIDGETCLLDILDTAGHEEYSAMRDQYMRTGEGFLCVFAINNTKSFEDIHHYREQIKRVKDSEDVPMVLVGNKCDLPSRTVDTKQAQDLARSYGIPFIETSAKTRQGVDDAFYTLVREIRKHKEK
KRAS Q61H, sequence (P62937 whole entry): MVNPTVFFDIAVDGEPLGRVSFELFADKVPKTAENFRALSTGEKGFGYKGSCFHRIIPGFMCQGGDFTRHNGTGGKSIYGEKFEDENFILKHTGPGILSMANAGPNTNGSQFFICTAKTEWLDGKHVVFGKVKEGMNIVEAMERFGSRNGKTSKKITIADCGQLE
K-Ras G13C, sequence (P01116-2 other isoform, or with tags, fused parts or gaps G13C): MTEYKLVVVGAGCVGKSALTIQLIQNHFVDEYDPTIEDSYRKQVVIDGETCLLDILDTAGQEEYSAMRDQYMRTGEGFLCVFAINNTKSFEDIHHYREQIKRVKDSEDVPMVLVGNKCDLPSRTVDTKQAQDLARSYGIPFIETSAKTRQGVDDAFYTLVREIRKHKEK
K-Ras G13C, sequence (P62937 whole entry): as the sequence (P62937 whole entry) above
NRAS WT, sequence (P01111 whole entry): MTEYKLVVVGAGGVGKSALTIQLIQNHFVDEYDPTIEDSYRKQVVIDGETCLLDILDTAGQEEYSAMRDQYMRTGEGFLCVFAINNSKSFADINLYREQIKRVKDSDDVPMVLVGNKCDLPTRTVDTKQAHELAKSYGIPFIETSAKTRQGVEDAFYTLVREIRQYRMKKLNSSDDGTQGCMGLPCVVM
NRAS WT, sequence (P62937 whole entry): as the sequence (P62937 whole entry) above
KRAS G12V, sequence (P01116-2 other isoform, or with tags, fused parts or gaps G12V): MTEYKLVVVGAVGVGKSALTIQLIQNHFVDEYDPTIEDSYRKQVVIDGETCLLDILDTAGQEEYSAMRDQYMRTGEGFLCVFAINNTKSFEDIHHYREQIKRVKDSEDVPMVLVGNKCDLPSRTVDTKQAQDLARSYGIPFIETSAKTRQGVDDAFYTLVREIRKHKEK
KRAS G12V, sequence (P62937 whole entry): as the sequence (P62937 whole entry) above
KRAS G13D, sequence (P01116-2 other isoform, or with tags, fused parts or gaps G13D): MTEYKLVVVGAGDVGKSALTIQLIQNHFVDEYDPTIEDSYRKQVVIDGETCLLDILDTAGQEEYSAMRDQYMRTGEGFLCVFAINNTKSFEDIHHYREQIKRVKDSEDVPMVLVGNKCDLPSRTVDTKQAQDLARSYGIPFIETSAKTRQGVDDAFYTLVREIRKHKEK
KRAS G13D, sequence (P62937 whole entry): as the sequence (P62937 whole entry) above
KRAS WT, sequence (P01116-2 other isoform, or with tags, fused parts or gaps): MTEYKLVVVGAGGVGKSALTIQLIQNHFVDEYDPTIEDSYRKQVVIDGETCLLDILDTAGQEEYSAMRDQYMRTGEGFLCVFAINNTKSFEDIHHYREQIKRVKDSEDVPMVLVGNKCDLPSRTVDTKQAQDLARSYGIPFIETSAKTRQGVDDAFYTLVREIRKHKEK
KRAS WT, sequence (P62937 whole entry): as the sequence (P62937 whole entry) above

In general, EC50 refers to the midpoint of the concentration-response curve. In general, IC50 refers to the concentration that gives 50% inhibition. For the molecule `C=CC(=O)N1CCC(F)(C(=O)N(C)[C@H](C(=O)N[C@H]2Cc3nc(cs3)-c3ccc4c(c3)c(c(-c3cccnc3[C@H](C)OC)n4CC)CC(C)(C)COC(=O)[C@@H]3CCCN(N3)C2=O)C(C)C)CC1` (atropisomer, axis not shown) [Example A700], in assay [1], the EC50 was less than 5 µM. The IC50 on K-Ras G13C, at KRAS G12V, on KRAS WT, on KRAS G13D, at KRAS Q61H and on NRAS WT was 0.1 to 1 µM each time.

Turning to `C=CC(=O)N1CCO[C@H]2CN(C(=O)N(C)[C@H](C(=O)N[C@H]3Cc4nc(cs4)-c4ccc5c(c4)c(c(-c4cccnc4[C@H](C)OC)n5CC)CC(C)(C)COC(=O)[C@@H]4CCCN(N4)C3=O)C(C)C)C[C@H]21` (atropisomer, axis not shown) [Example A706], in assay [1], the EC50 is less than 5 µM. Moreover, the IC50 at K-Ras G13C was in the range of 0.01 to 0.1 µM; on KRAS G12V, 1 to 10 µM; at KRAS WT, 1 to 10 µM; on KRAS G13D, 1 to 10 µM; at KRAS Q61H it was 0.1 to 1 µM; at NRAS WT, 1 to 10 µM.

Turning to `CO[C@@H](C)c1ncccc1-c1c2c3cc(ccc3n1CC(F)(F)F)-c1cnc(o1)C[C@H](NC(=O)[C@H](C(C)C)N(C)C(=O)[C@H]1CCN(C(=O)C#CC(C)(C)N(C)C)C1)C(=O)N1CCC[C@H](N1)C(=O)OCC(C)(C)C2` (atropisomer, axis not shown) [Example A707], the EC50 in assay [1] was less than 5 µM. Moreover, the half-inhibitory concentration (IC50) at K-Ras G13C was in the range of 0.1 to 1 µM; on KRAS G12V, 1 to 10 µM; on KRAS WT, 1 to 10 µM; at KRAS G13D it was 1 to 10 µM; on KRAS Q61H it was 1 to 10 µM; at NRAS WT, 1 to 10 µM.

Regarding `CO[C@@H](C)c1ncccc1-c1c2c3nc(ccc3n1CC(F)(F)F)-c1cccc(c1)C[C@H](NC(=O)[C@@H](COC1CN(C(=O)C#CC(C)(C)N(C)C)C1)C(C)C)C(=O)N1CCC[C@H](N1)C(=O)OCC(C)(C)C2` (atropisomer, axis not shown) [Example A724], the EC50 in assay [1] was less than 5 µM. The IC50 on K-Ras G13C, on KRAS G12V, on KRAS WT, on KRAS G13D, at KRAS Q61H and at NRAS WT was more than 10 µM in each case.

Regarding `CCn1c(-c2cccnc2[C@H](C)OC)c2c3cc(ccc31)-c1cccc(c1)C[C@H](NC(=O)[C@H](C(C)C)N1CO[C@@]3(CCN(C(=O)C#CC(C)(C)N4CCC4)C3)C1=O)C(=O)N1CCC[C@H](N1)C(=O)OCC(C)(C)C2` (atropisomer, axis not shown) [Example A733], in assay [1], the EC50 was less than 5 µM. Besides, the IC50 is 0.1 to 1 µM on K-Ras G13C; 1 to 10 µM on KRAS G12V; more than 10 µM on KRAS WT; more than 10 µM on KRAS G13D; 1 to 10 µM on KRAS Q61H; more than 10 µM on NRAS WT.

With `C=CC(=O)N1CCN(C(=O)N(C)[C@H](C(=O)N[C@H]2Cc3nc(cs3)-c3ccc4c(c3)c(c(-c3cccnc3[C@H](C)OC)n4CC)CC(C)(C)COC(=O)[C@@H]3CCCN(N3)C2=O)C(C)C)[C@@H]2C[C@@H]21` (atropisomer, axis not shown) [Example A736], the EC50 in assay [1] was less than 5 µM. Besides, the IC50 lay within 0.01 to 0.1 µM at K-Ras G13C; 0.1 to 1 µM on KRAS G12V; 0.01 to 0.1 µM at KRAS WT; 0.1 to 1 µM at KRAS G13D; 0.01 to 0.1 µM on KRAS Q61H; 0.01 to 0.1 µM on NRAS WT.

With `C=CC(=O)C1CC[C@H](C(=O)N(C)[C@H](C(=O)N[C@H]2Cc3cc(O)cc(c3)-c3ccc4c(c3)c(c(-c3cnn(C)c3[C@H](C)OC)n4CC)CC(C)(C)COC(=O)[C@@H]3CCCN(N3)C2=O)C(C)C)C1` (stereo partly shown) [Example A166], the EC50 in assay [1] is less than 5 µM. The IC50 on K-Ras G13C is 0.1 to 1 µM; at KRAS G12V it was 0.1 to 1 µM; on KRAS WT, 0.1 to 1 µM; at KRAS G13D it was 1 to 10 µM; at KRAS Q61H it was 0.1 to 1 µM; at NRAS WT, 0.1 to 1 µM.

As to `C=CC(=O)N1CC[C@H](C(=O)N(C)[C@H](C(=O)N[C@H]2Cc3cc(O)cc(c3)-c3ccc4c(c3)c(c(-c3cncc5c3[C@@H](OC)CC5)n4CC)CC(C)(C)COC(=O)[C@@H]3CCCN(N3)C2=O)C(C)C)C1` [Example A275], the half-maximal effective concentration (EC50) in assay [1] is less than 5 µM. Moreover, the IC50 was 0.01 to 0.1 µM on K-Ras G13C; 0.01 to 0.1 µM on KRAS G12V; 0.1 to 1 µM on KRAS WT; 0.1 to 1 µM on KRAS G13D; 0.01 to 0.1 µM on KRAS Q61H; 0.01 to 0.1 µM on NRAS WT.

As to `C=CC(=O)N1CC[C@H](C(=O)N(C)[C@H](C(=O)N[C@H]2Cc3nc(ns3)-c3ccc4c(c3)c(c(-c3cncnc3)n4CC)CC(C)(C)COC(=O)[C@@H]3CCCN(N3)C2=O)C(C)C)C1` [Example A285], the EC50 in assay [1] was less than 5 µM. Further, the IC50 on K-Ras G13C, at KRAS G12V, on KRAS WT, at KRAS G13D, on KRAS Q61H and at NRAS WT was more than 10 µM throughout.

For the molecule `C=CC(=O)N1CC[C@H](C(=O)N(C)[C@H](C(=O)N[C@H]2Cc3cc(O)cc(c3)-c3ccc4c(c3)c(c(-c3cnn5c3[C@@H](OC)CCC5)n4CC)CC(C)(C)COC(=O)[C@@H]3CCCN(N3)C2=O)C(C)C)C1` [Example A300], in assay [1], the EC50 is less than 5 µM. Further, the IC50 on K-Ras G13C, at KRAS G12V, at KRAS WT, on KRAS G13D, at KRAS Q61H and at NRAS WT was 0.01 to 0.1 µM throughout.

In the case of `CCn1c(-c2cccnc2[C@H](C)OC)c2c3cc(ccc31)-c1cccc(c1)C[C@H](NC(=O)C(COC1CN(C(=O)C#CC(C)(C)N(C)C)C1)C(C)C)C(=O)N1CCC[C@H](N1)C(=O)OCC(C)(C)C2` (stereo partly drawn) [Example A316, (2R)-2-(((1-(4-(dimethylamino)-4-methylpent-2-ynoyl)azetidin-3-yl)oxy)methyl)-N-((6^3S,4S)-1^1-ethyl-1^2-(2-((S)-1-methoxyethyl)pyridin-3-yl)-10,10-dimethyl-5,7-dioxo-6^1,6^2,6^3,6^4,6^5,6^6-hexahydro-1^1H-8-oxa-1(5,3)-indola-6(1,3)-pyridazina-2(1,3)-benzenacycloundecaphane-4-yl)-3-methylbutanamide], in assay [1], the EC50 is less than 5 µM. The IC50 was 1 µM to 10 µM (2×) and > 10 µM at K-Ras G13C; 1 µM to 10 µM and > 10 µM (2×) on KRAS G12V; more than 10 µM at KRAS WT; more than 10 µM at KRAS G13D; more than 10 µM at KRAS Q61H; more than 10 µM on NRAS WT.

For `C=CC(=O)N1CCC(C(=O)N(C)[C@H](C(=O)N[C@H]2Cc3cc(CF)cc(c3)-c3ccc4c(c3)c(c(-c3cccnc3[C@H](C)OC)n4CC(F)(F)F)CC(C)(C)COC(=O)[C@@H]3CCCN(N3)C2=O)C(C)C)C1` (stereo partly shown) [Example A659], in assay [1], the EC50 was less than 5 µM. The IC50 on K-Ras G13C, on KRAS G12V, on KRAS WT, at KRAS G13D, at KRAS Q61H and at NRAS WT was 0.1 to 1 µM each time.

With `CCn1c(-c2cccnc2[C@H](C)OC)c2c3cc(ccc31)N1CCO[C@@H](C[C@H](NC(=O)[C@H](C(C)C)N(C)C(=O)[C@@]3(F)CCC(C(=O)C#CC(C)(C)N4CCC4)C3)C(=O)N3CCC[C@H](N3)C(=O)OCC(C)(C)C2)C1` (stereo partly shown) [Example A726], the EC50 in assay [1] was less than 5 µM. The IC50 was 0.1 to 1 µM at K-Ras G13C; 1 to 10 µM on KRAS G12V; 1 to 10 µM on KRAS WT; 1 to 10 µM on KRAS G13D; 1 to 10 µM on KRAS Q61H; 1 to 10 µM on NRAS WT.

The values above are taken from patent US11566007B2, “Ras inhibitors” (Revolution Medicines, Inc., priority 2019, dated 2023).
